Entries after “also recorded” stand apart in the source; their conditions may differ.
How the values were obtained:
T. brucei cells [1] = assay: DNA synthesis assay by BrdU pulse labeling; format: cell-based, Trypanosoma brucei; settings: 10 µM, after 8 h of treatment
Experimental: The 5-Bromo-2′-deoxyuridine (BrdU) incorporation assay was performed as described previously in ref. [49]. BrdU (Sigma-Aldrich, catalog number B5002) was added to cell cultures to a final concentration of 500 μM and incubated for 40 min at 37 °C. About 20 million cells were harvested and fixed in ice-cold 70% ethanol. DNA in fixed cells was denatured in 0.1 N HCl (Fisher Scientific) with 0.5% Tween 20 (Sigma-Aldrich) and 1% BSA (Jackson Immunoresearch) for 20 min at room temperature. To stain newly incorporated DNA, fixed cells were incubated with 1 µg/ml mouse anti-BrdU antibody (BD Pharmingen, catalog number 555627, lot 6084615, dilution 1:500) at room temperature for 2.5 h and then with 4 µg/ml donkey anti-mouse Alexa 488 (Invitrogen, catalog number A-21202, lot 94C2-1, dilution 1:500) at room temperature for 1 h in the dark. Bulk DNA was stained with 5 µg/ml PI by incubating at room temperature for 30 min in the dark. Samples were analyzed by flow cytometry (FACSVia, BD Biosciences) and FlowJo.

T. brucei cells [2] = assay: Cell-cycle analysis by PI staining and flow cytometry; format: cell-based, Trypanosoma brucei; settings: 10 µM
Experimental: About 10 million cells were collected, fixed with ice-cold 70% ethanol, and incubated with 50 μg/ml PI (Sigma-Aldrich) and 200 μg/ml RNase A (Sigma-Aldrich) in 1x PBS (Corning) at 37 °C for 30 min in the dark. Samples were analyzed by flow cytometry ([…], BD Biosciences) and FlowJo.

[3] = test system: TbRPA1, γH2A, VSG3 protein levels in T. brucei cells; assay: Immunoblotting of TbRPA1, γH2A, VSG3; format: cell-based, Trypanosoma brucei; settings: 10 µM
Text: Cells were harvested at indicated time points and suspended in Laemmli buffer (Bio-Rad) at 0.25 million cells per µl. Denatured proteins from whole cells were separated on a 4–20% gradient SDS-PAGE gel (Bio-Rad) and transferred to a nitrocellulose membrane (GE Healthcare). The membranes were probed with polyclonal antibodies against TbRPA1 (a gift from Bibo Li laboratory, ProSci Inc., ID: 21371, dilution factor 1:1,000) or γH2A (generated by ABclonal for this study, antibody ID E16070 (P), dilution factor 1:1,000), or monoclonal mouse antibodies against VSG3 (Antibody and Bioresource Core facility, MSKCC, catalog number cloneVSG224-11D6, lot EQ.11-Pur.-A, dilution factor 1:1,000) or Tubulin (Sigma, catalog number T7451, clone 6-11B-1, lot 0000149704, dilution 1:5000) in 1x PBS with 0.1% Tween 20 and 1% milk (Bio-Rad) at 4 °C overnight. The membranes were then incubated with secondary antibodies conjugated with Horseradish Peroxidase (HRP) (GE Healthcare; Rabbit HRP: catalog number NA934V, lot 17640116; Mouse HRP: catalog number NA931V, lot 17041904, dilution 1:5000) for the detection of corresponding proteins using chemiluminescence (Hyglo ELC solution from Denville Scientific, catalog number E2400; ChemiDoc Imaging System from Bio-Rad).

TbRPA1 DBD-AB = TbRPA1 DBD-AB (Trypanosoma brucei brucei, UniProt Q384B5); assay: MST inhibition of ssDNA-binding activity, TbRPA1 DBD-AB; settings: 4-PL
Text: Samples were then loaded into MST capillaries.
We used one site binding to obtain a dissociation constant (Kd) and standard 4-parameter logistic curve (Sigmoidal curve) analysis to obtain the IC50 value of JC-229. We used GraphPad Prism software.

Sequence of TbRPA1 DBD-AB (Q384B5 entry or part of it): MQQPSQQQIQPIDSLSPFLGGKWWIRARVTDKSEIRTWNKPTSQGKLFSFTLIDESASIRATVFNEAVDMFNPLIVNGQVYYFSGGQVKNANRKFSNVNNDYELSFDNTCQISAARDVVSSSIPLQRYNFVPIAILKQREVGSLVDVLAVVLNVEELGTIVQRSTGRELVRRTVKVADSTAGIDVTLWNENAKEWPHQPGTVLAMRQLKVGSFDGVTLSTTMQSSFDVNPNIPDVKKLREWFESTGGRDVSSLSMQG

Cc1ccc(C(=O)Nc2ccc(Cl)c(Cl)c2)cc1S(=O)(=O)Nc1ccc(Cl)c(Cl)c1 [JC-229, N-(3,4-dichlorophenyl)−3-(N-(3,4-dichlorophenyl)sulfamoyl)−4-methylbenzamide]
New DNA synthesis (BrdU incorporation) (T. brucei cells [1]): completely blocked new DNA synthesis; also recorded: completely blocking DNA synthesis
Sub-G1 population (T. brucei cells [2]; 32 h): ~45%
Cells that lost the bulk of their DNA (T. brucei cells [2]; 48 h): ~97%
Levels of VSG3 [3]: increased
Levels of γH2A [3]: increased
TbRPA1 protein levels [3]: did not change
IC50 (TbRPA1 DBD-AB; dT12, 30 nM protein): 2800 nM
IC50 (TbRPA1 DBD-AB; dT20, 30 nM protein): 881 nM
IC50 (TbRPA1 DBD-AB; dT32, 30 nM protein): 228 nM

Source: PMC10359466, “Identification of a small-molecule inhibitor that selectively blocks DNA-binding by Trypanosoma brucei replication protein A1” (Nature Communications, 2023)
